According to patent US20070213411A1, “Dispersions And Methods Of Preparing Them” (The Australian National University, priority 2003, published 2007):

How the values were obtained:
[1] = Dispersion in water and its stability after vigorous shaking, de-gassed versus gassed (turbidity, visual); assay type: physicochemical; settings: for quality of dispersion in water (turbidity / visual): de-gassed; for quality of dispersion in water (turbidity / visual) / quality of dispersion in water (visual): after vigorous shaking; for quality of dispersion in water (visual): gassed; for time the dispersion is maintained / stable: de-gassed mixture in water after vigorous shaking, no added dispersants
Method: (§1) The enhancement of oil droplet dispersion in water is most easily monitored using turbidity measurements. This enhancement can be measured by the difference between the new system (degassed) and the gassed blank, following vigorous shaking. […] Turbidity is a measure of how many droplets are dispersed in a given phase and is measured in NTU (nephelometric turbidity units) and in the results presented here is measured by light scattering. To give an understanding of the magnitude of these turbidity values, distilled water has a turbidity of 0.02 NTU, while tap water has a value of 1-2 NTU. Although useful, NTU measurements are of limited value and the results can be inaccurate if the refractive index of the dispersed phase is close to that of the dispersing phase (such as with perfluorocarbons in water) and so in some cases dynamic light scattering (DLS) has been used to obtain the droplet size distribution, as well as the charge on the oil droplets. However, careful interpretation of the DLS results is required for poly-disperse samples. Mono-disperse samples show size distribution by volume graphs (see later) over similar size ranges to the Z-average (diameter) and have a small PDI value (poly-dispersity index). The magnitude of the PDI is a measure of poly-dispersity. For poly-disperse samples the Z-average is the best estimate of average droplet size.
(§2) Mixtures of oil and water were de-gassed by a process of repeated freezing in liquid nitrogen, followed by pumping down to a pressure of 0.01 mbar and then melting in a sealed tube. The dissolved gas produced on each melting cycle was removed on re-freezing. Although this process was carried out five times, typically no further de-gassing on melting was observed after 3-4 cycles. […] (It should be noted that membrane separators and vacuum towers are used to de-gas liquids commercially.)
(§3) Dispersion of oil in water was achieved by vigorous shaking of the mixture for 8 sec in a sealed Pyrex tube. Turbidity was measured using an HF Scientific Micro 100 Turbidimeter. Particle sizes and zeta potentials were measured using a Malvern Zetasizer.

[2] = Theoretical water droplet contact angle on the oil surface (Young's wetting equation); assay type: physicochemical; settings: calculated by Young's wetting equation
Method: This can be attributed to the fact that the more soluble oils undergo Ostwald ripening, allowing rapid oil droplet growth. The more hydrophobic an oil the better it is for use in methods described herein as Ostwald ripening cannot occur. A degree of hydrophobicity can be estimated by applying the Young's wetting equation to a theoretical liquid/liquid drop profile. A theoretical water droplet contact angle on the oil surface can be calculated, and if this angle is higher than about 80°, preferably higher than 90° then the oil is sufficiently hydrophobic. For example, for dodecane, the theoretical droplet contact angle is 110°. However, it should be noted that selection of a suitable carrier liquid or oil according to theoretical contact angles is a guide only and that liquids or oils having a theoretical contact angle of about 80° are not necessarily less preferred than those having a higher theoretical contact angle.

[3] = cited from earlier work; for Surface tension: against air; for Interfacial tension: against water
[4] = Zeta potential of oil droplets (Malvern Zetasizer); assay type: physicochemical; settings: de-gassed mixture in water
Method: as §2, §3

[5] = Droplet size distribution of oil-in-water dispersions by dynamic light scattering (Malvern Zetasizer); assay type: physicochemical; settings: 0.2 ml/25 ml water
Method: as §1, §2, §3

For COC1=CC(=O)C[C@@H](C)[C@]12Oc1c(Cl)c(OC)cc(OC)c1C2=O [griseofulvin], the “turbidity after dispersion by vigorous shaking” value ([1]; 0.05 g dissolved in 10 ml soybean oil, 0.2 ml of this dispersed in 25 ml water) was “the same as those obtained for soybean oil alone”, the “quality of dispersion in water (turbidity / visual)” value (“quality … (turbidity / visual)” below) [1] was “clearly well dispersed” and the “quality of dispersion in water (visual)” value [1] was “solid clumps and a more transparent solution”.

In the case of CCCCCCCCCCCC [dodecane, reference compound], the “Theoretical contact angle (water droplet on oil surface)” value (from here on “Theoretical contact angle”) [2] is reported as 110 °.

For FC(F)(F)C(F)(F)C(F)(F)C(F)(F)C(F)(F)C(F)(F)C(F)(F)C(F)(F)F [C8F18, perfluorooctane], the “Theoretical contact angle” value [2] is listed as 113° ^, the Surface tension [3] is listed as 14.00 mN/m and the Interfacial tension [3] is listed as 42 mN/m.

In the case of CC(C)c1cccc(C(C)C)c1O [Propofol, 2,6-diisopropyl phenol], the “effect of added salt on the dispersion” value ([1]; de-gassed dispersion exposed to high salt levels, above those found in human blood) is reported as “unaffected by the addition of salt”, the “time the dispersion is maintained / stable” value [1] is reported as “many hours” and the “quality … (turbidity / visual)” value [1] is reported as “complete dispersion of the oil”. For the same compound, the “quality of dispersion in water (visual)” value [1] was “many large, visible droplets of the oil”.

In the case of FC(F)(F)C(F)(F)C(F)(F)C(F)(F)C(F)(F)C(F)(F)F [C6F14, perfluorohexane], the “Theoretical contact angle” value [2] is listed as 111° ^, the Surface tension [3] is listed as 11.91 mN/m and the Interfacial tension [3] is listed as 38 mN/m. For the same compound, the “time the dispersion is maintained / stable” value [1] was “many hours”, the “quality … (turbidity / visual)” value [1] was “readily dispersed” and the “time to phase separation after vigorous shaking” value ([1]; gassed mixture, 0.2 ml/25 ml water) was “less than a minute”.

For FC(F)(F)C(F)(F)C(F)(F)C(F)(F)C(F)(F)C(F)(F)C(F)(F)C(F)(F)Br [Perflubron, perfluorooctyl bromide], the “zeta potential of droplets” value [4] was −42 mV, the average droplet diameter ([5]; de-gassed, 1 hour after vigorous shaking) was “about 0.6 microns” and the “PDI (poly-dispersity index)” value ([5]; de-gassed, at one hour) was 0.430. The Z-average size ([5]; de-gassed, at one hour) was 599.6 nm, the “droplet size of size graph (Diam)” value ([5]; de-gassed, at one hour) was 437.6 nm and the “PDI (poly-dispersity index)” value ([5]; gassed, after 1 hour) was 0.674. The Z-average size ([5]; gassed, at one hour) was 1176 nm, the “Theoretical contact angle” value [2] was 113° and the Surface tension [3] was 18 mN/m. The Interfacial tension [3] was 47 mN/m, the “time the dispersion is maintained / stable” value [1] was “many hours” and the “quality … (turbidity / visual)” value [1] was “enhanced dispersion due to de-gassing is observed”.

For FC(F)(F)C(F)(F)C(F)(F)C(F)(F)C(F)(F)C(F)(F)C(F)(F)F [C7F16, perfluoroheptane], the “Theoretical contact angle” value [2] is listed as 112°^, the Surface tension [3] is listed as 12.85 mN/m and the Interfacial tension [3] is listed as 39.7 mN/m.
